In US20250188085A1, “COMPOSITIONS AND METHODS FOR INHIBITION OF RAS” (THERAS, INC., priority 2022, published 2025):

Experiments:
[1] = biological target: T1, GDP-loaded KRAS4b (amino acids 1-169) G12C/C118S protein (Homo sapiens, UniProt P01116, C118S/G12C); experiment: Covalent cysteine 12 modification by MALDI-TOF MS, GDP-loaded KRAS G12C; format: binding; conditions: 15 minutes reaction time point
T1 construct: KRAS4b (amino acids 1-169) G12C/C118S protein; made in house
Outline: (§1)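 KRAS4b 1-169 G12C/C118S loaded with GDP, GppNHp or GTP was used at 1 μM in 20 mM HEPES, 150 mM NaCl, 1 mM MgCl2, pH 7.3, and incubated with compound (5 mM DMSO stock) at room temperature in the dark. % modification at 15 min is adduct peak height over total protein peak heights by linear-mode MALDI-TOF.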

[2] = test system: pERK in NCI-H358 cells; experiment: Cell-based pERK HTRF assay; conditions: Homo sapiens, NCI-H358, 0.5 h, 30 min incubation, read-out: pERK in NCI-H358 cell inhibition IC50
Outline: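 Cells seeded at 4×10^4/well in RPMI with 10% FBS, then next day treated for 30 min with a 9-point, 3-fold series from 75 μM top concentration at 0.25% DMSO. Lysates were read for pERK by HTRF (d2/Eu cryptate antibodies) after 4–24 h at room temperature, emission at 615 nm.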

[3] = biological target: T2, Avi-KRAS G12C (1-169) GppNHp/RAF1 RBD-3×FLAG (52-151) (Homo sapiens, UniProt P01116, G12C); experiment: Raf1 RBD-KRAS G12C-GppNHp disruption (protein:protein interaction HTRF assay); format: biochemical
T2 construct: Avi-KRAS G12C (1-169) GppNHp/RAF1 RBD-3×FLAG (52-151)
Outline: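 HTRF measuring disruption of 50 nM Avi-KRAS G12C (1-169) loaded with GppNHp binding RAF1 RBD-3×FLAG (52-151), in pH 7.5 Tris buffer with 5 mM MgCl2, 0.1% BSA, 10% DMSO. KRAS preincubated with compound 1 h, then RBD 1 h, then detection reagents 1 h, all at room temperature. Compound titration 30-0.02 μM; activity expressed as percent of DMSO control.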

[4] = biological target: T3, GTP-loaded KRAS4b (amino acids 1-169) G12C/C118S protein (Homo sapiens, UniProt P01116, C118S/G12C); experiment: Covalent cysteine 12 modification by MALDI-TOF MS, GTP-loaded KRAS G12C; format: binding; conditions: 15 minutes reaction time point
T3 construct: KRAS4b (amino acids 1-169) G12C/C118S protein; made in house
Procedure: Reaction: 1 μM of GppNHp-, GTP-, or GDP-loaded KRAS4b (amino acids 1-169) G12C/C118S protein (produced in-house by Protein Expression Laboratory, FNLCR/Leidos Biomed) in 20 mM 4-(2-hydroxyethyl)-1-piperazineethanesulfonic acid (HEPES) buffer containing 150 mM NaCl, 1 mM MgCl2, pH 7.3 was prepared freshly before assay. Ten-μL aliquots of protein were dispensed onto low volume 384-well plate, then 375 nL DMSO, and 25 nL of tested compounds from 5 mM DMSO stocks were added to appropriate wells using ECHO 555 acoustic liquid handler (Labcyte Inc.). For each reaction/assay, three blanks were prepared by mixing 10 μL of protein solution with 400 nL DMSO. The contents of the wells were carefully mixed by aspiration, and then each plate was sealed with an adhesive cover, centrifuged at 2000 g for 1 minute, and kept in the dark at room temperature until 5 min, 15 min, 30 min, or 2 h collections.
Target pretreatment: Before each assay MALDI target (Bruker MPT 384 ground steel BC) was pre-treated by pipetting on each spot 0.75 μL of saturated sinapinic acid in acetonitrile (ACN).
Sample preparation: At collection time point, 2 μL of reaction mixtures were pipetted out into 20 μL MALDI matrix solution (saturated solution of sinapinic acid in 1:1 ACN:water solution containing 0.75% trifluoroacetic acid (TFA)) deposited on 384 well polypropylene plate. Resulting solution was mixed by aspiration, centrifuged at 2000 g for 1 minute, then 1 μL aliquots were dispensed on pre-treated MALDI target using Beckman Coulter Biomek FXP 96/384-Span-8 Laboratory Automation Workstation. Finally, the MALDI target was dried under mild vacuum to produce spots with fine crystalline structure.
Measurements: MALDI-TOF measurements were performed on a Bruker Daltonics rapiflex Tissuetyper TOF-TOF mass spectrometer using linear mode and mass range from 18.6 to 21.6 kDa. Detector gain was set to 3.3× (483 V), sample rate to 5 GS/s, real time smoothing to medium (175 MHz), laser smart beam pattern was set to: “MS Thin Layer M5”, and the laser frequency was 10000 Hz. Spectra were automatically collected using custom Auto Xecute method. Laser power was auto adjusted using fuzzy control. The peak selection range was set to be between 19000 and 21500 Da. Peak evaluation uses half width parameter set to be smaller than 40 Da for processed spectrograms (centroid peak detection; smoothed by SavitzkyGolay algorithm using 7 m/z width and 2 cycles; baseline was subtracted using median algorithm with flatness 1 and median level 0.01). Fuzzy control used Proteins/Oligonucleotides protocol with minimum half width 1/10 times above threshold. Up to 40000 satisfactory shots were collected in 10000 shot steps. Dynamic termination was implemented to finish data collection when peak signal/noise ratio was reaching value of 50.
Spectra processing: Spectra were smoothed by SavitzkyGolay algorithm using 7 m/z width and three cycles. Centroid peak detection algorithm was used with signal to noise threshold set to 6, relative intensity threshold 4%, peak width 10 m/z and median baseline subtraction using flatness of 1 and median level of 0.01. Peak intensity and area under the peak were evaluated and recorded for all peaks between 19,300 Da and 21,550 Da.
Calculation of percent modification: Percent modification was calculated as a ratio of peak height for protein modified by compound to sum of peak height of remaining protein plus peak height for protein modified by compound. If multiple modifications were observed each was calculated as a ratio of peak height for given modification versus sum of peak heights for all observed protein species. Data reported in Table 5 are from 15 minutes reaction time point.

[5] = biological target: T4, GppNHp-loaded KRAS4b (amino acids 1-169) G12C/C118S protein (Homo sapiens, UniProt P01116, C118S/G12C); experiment: Covalent cysteine 12 modification by MALDI-TOF MS, GppNHp-loaded KRAS G12C; format: binding; conditions: 15 minutes reaction time point
T4 construct: KRAS4b (amino acids 1-169) G12C/C118S protein; made in house
Outline: as §1

Row | SMILES | GDP-KRAS G12C percent of modification [1] | IC50 [2] | IC50 [3] | GTP-KRAS G12C percent of modification [4] | GppNHp-KRAS G12C percent of modification [5]
1 | C=CC(=O)N1CC[C@@H](Oc2nc(OC[C@@]34CCCN3C[C@H](F)C4)nc3cc(-c4ccc(F)c5sc(N)nc45)c(C(F)(F)F)cc23)[C@H]1C [Compound 60] | A (percent of modification ≥70%) | ≤ 100 nM | ≤ 500 nM | C (10%≤modification <50%) | B (50≤percent of modification <70%)
2 | C=CC(=O)N1CC[C@@H](Oc2nc(OC[C@@]34CCCN3C[C@H](F)C4)nc3c(F)c(-c4ccc(F)c5sc(N)c(C#N)c45)c(C(F)(F)F)cc23)[C@@H]1C [Compound 123] | B (50≤percent of modification <70%) | ≤ 100 nM | ≤ 500 nM | D (percent of modification <10%) | C (10%≤modification <50%)
3 | C=CC(=O)N1CC[C@@H](Oc2nc(OC[C@@]34CCCN3C[C@H](F)C4)nc3c(F)c(-c4ccc(F)c5sc(N)c(C#N)c45)c(Cl)cc23)[C@H]1COC [Compound 111] | C (10%≤modification <50%) | ≤ 100 nM | 500 to 5000 nM | D (percent of modification <10%) | D (percent of modification <10%)
4 | C=CC(=O)N1CC[C@@H](Oc2nc(N3CC(N4CC5(CC5)C4)C3)nc3c(F)c(-c4ccc(F)c5sc(N)c(C#N)c45)ncc23)C1 [Compound 87] | A (percent of modification ≥70%) | 100 to 1000 nM | 500 to 5000 nM | D (percent of modification <10%) | C (10%≤modification <50%)
5 | C=CC(=O)N1CC[C@@H](Oc2nc(OC[C@@]34CCCN3C[C@H](F)C4)nc3c(F)c(-c4ccc(F)c5sc(N)c(C#N)c45)c(Cl)cc23)[C@@H]1CC [Compound 117] | C (10%≤modification <50%) | > 1000 nM | > 20000 nM | D (percent of modification <10%) | D (percent of modification <10%)
6 | C=CC(=O)N1C[C@@H](F)[C@@H](Oc2nc(OC[C@@]34CCCN3C[C@H](F)C4)nc3cc(-c4ccc(F)c5sc(N)nc45)c(C(F)(F)F)cc23)C1 [Compound 58] | A (percent of modification ≥70%) | ≤ 100 nM | ≤ 500 nM | B (50≤percent of modification <70%) | A (percent of modification ≥70%)
7 | C=CC(=O)N1C[C@@H](F)[C@@H](Oc2nc(OC[C@@]34CCCN3C[C@H](F)C4)nc3c(F)c(-c4ccc(F)c5sc(N)nc45)ccc23)C1 [Compound 82] | A (percent of modification ≥70%) | ≤ 100 nM | ≤ 500 nM | C (10%≤modification <50%) | B (50≤percent of modification <70%)
